Measurements from patent US11213495B2, “Method and composition for decreasing the psychotomimetic side effect and addictive disorder of ketamine” (NATIONAL HEALTH RESEARCH INSTITUTES, priority 2016, dated 2022).
“Also recorded” adds a separate entry of the source.

Columns and labels:
Assay type in all cases: in vivo
[1] = test system: Male ICR mice; assay: Novel object recognition test (NORT)
Procedure: The novel location recognition test (NLRT) and novel object recognition test (NORT) were examined in a Plexiglas open field box (35×35×30 cm) located in a sound-attenuated room and illuminated with a 20-W light bulb. The novel location and novel object recognition procedure consisted of habituation, training, and retention sessions. Habituation was conducted in two consecutive daily sessions, during which each mouse was allowed to individually explore the box in the absence of objects for 20 min. The animal is then removed from the arena and placed in its home cage. During the sample phase, each animal was placed in the box, and after 5 min, two identical sample objects (A+A) were simultaneously introduced in two corners. Each animal was allowed to explore the objects for 5 min. An animal was considered to explore the object when its head was facing the object at a distance of approximately 1 cm or less between the head and object or when it was touching or sniffing the object. The time spent exploring each object was recorded using stopwatches by an experimenter blind to the treatment condition.
After the sample phase, the mice were immediately returned to their home cages. The novel location recognition test was conducted 30 min after the training session. The animals were returned to the same box as during the sample phase, and one of the two objects was replaced with a novel local corner (A+A′) to test the location-based recognition memory. After 24 hours, novel object recognition test was performed. The mice are allowed to explore the open field with one identical sample object and a novel object to assess the novel object recognition memory (A+B). The animals were allowed to explore the box freely for 5 min, and the time spent exploring each object was recorded as described above. The objects and chambers were cleaned with 70% ethanol after each use. A preference index, a ratio of the amount of time spent exploring the original object or the novel location/object over the total time spent exploring both objects, was used to evaluate recognition memory. […]

[2] = test system: Male ICR mice; assay: Open field test / locomotor activity
Procedure: To evaluate the effect of DMG on ketamine-induced locomotor hyperactivity, the animals were moved from the home cage, weighed and placed into an activity cage (Columbus Auto-Track System, Version 3.0 A, Columbus Institute, Columbus, Ohio, USA) for 2 hours. Thereafter, the test drug (0, 30, and 100 mg/kg) was given 30 min prior to ketamine (30 mg/kg) or saline. The distance (cm) traveled was recorded for totally 180 min. A 70% alcohol solution was used to clean the inner surface of all the testing apparatus between trials to remove any potentially interfering odors left by the previous mouse.

[3] = test system: Male ICR mice; assay: Loss of righting reflex (LORR)
Procedure: The test drug betaine (0, 300, and 600 mg/kg) or DMG (0, 100 and 300 mg/kg) was administered 30 min prior to the anesthetic doses of ketamine (100 mg/kg). Then, the mice were placed in a clean cage until the righting reflex was lost. They were then placed in the supine position until recovery and the onset and duration of the loss of righting reflex was recorded. Recovery of the righting reflex was defined as the ability to perform three successive rightings.

[4] = test system: Male ICR mice; assay: Forced swimming test (FST) scored by time-sampling method; details: day 1 and 8, post hoc vs control
Procedure: FST was conducted for two consecutive days. Mice were placed in a Plexiglas cylinder (33.5 cm height, 20 cm diameter) filled with 25±2° C. water to a height of 18-20 cm. For the first exposure, mice were placed in the water for 15 min (pre-test session) followed by […]. Twenty-four hours later (day 1 test session), various doses of test drug (at 0, 30 and 100 mg/kg) was administered 30 min prior to the ketamine (10 mg/kg) or saline. Then, the mice were tested 30 min after ketamine injection which placed in the water again for a 6 min session (test session), the first 2 minutes has elapsed. Immobility was assigned when no additional activity was observed other than that required to keep the head above the water.
The acute and sustained effects of various doses of ketamine (3, 10, 15 mg/kg) and betaine (10, 20, 30 mg/kg) on FST were assessed on day 1 and 8, respectively (FIGS. 1A and 1B). […] There was no significant effect of test session or interaction.

[5] = test system: Male ICR mice; assay: Social interaction test
Procedure: This protocol was modified from the original social interaction test (Lin et al. 2010; Qiao et al. 2001). The social interaction between pairs of mice was examined in an open-field box (35×35×30 cm) under normal room lighting. The paired mice were randomly assigned from different home cages with the same drug treatment. […] Five minutes later, each pair of unfamiliar mice was placed in the apparatus for 10 min and the total time that a pair spent in social interaction and specific social interaction behaviors (sniffing the partner, following, mounting, and crawling under or over the partner) were recorded by an observer who was blind to the drug treatments.

[6] = test system: Male ICR mice; assay: Forced swim test (FST): duration of immobility, struggling and swimming; details: for duration of struggling in FST: betaine 20 mg/kg prior to ketamine 10 mg/kg
[7] = betaine 30 and 100 mg/kg alone, 60 min after administration
[8] = betaine 300 and 600 mg/kg 30 min prior to ketamine 100 mg/kg

Question: With `CNC1(c2ccccc2Cl)CCCCC1=O` (racemic) [ketamine] as the molecule, how does the recognition index ([1]; ketamine 30 mg/kg, retention session (24 h)) read?
Answer: The recognition index was “significantly reduced”.

Question: And the “total travel distances after ketamine administration” value ([2]; ketamine 30 mg/kg, measured for 30 min)?
Answer: The value was “increased”.

Question: And the “loss of righting reflex” value ([3]; ketamine 100 mg/kg i.p. (anesthetic dose))?
Answer: The value was “produced a loss of righting reflex; also recorded: produced LORR”.

Question: And the “count of immobility in FST” value ([4]; ketamine 3, 10 and 15 mg/kg)?
Answer: The value was “significantly decreased”.

Question: What about the social interaction duration ([5]; ketamine 30 mg/kg) of the same molecule?
Answer: Its social interaction duration is “reduction”.

Question: Which results are given for `C[N+](C)(C)CC(=O)O` [betaine]?
Answer: recognition impairing effects of ketamine ([1]; betaine 30 and 100 mg/kg 30 min prior to ketamine 30 mg/kg, retention session): significantly reversed; ketamine-induced locomotor hyperactivity ([2]; betaine 30 and 100 mg/kg 30 min prior to ketamine 30 mg/kg): not affected; time in center [2, 7]: did not affect; travel distances (locomotor activity) [2, 7]: did not affect; duration of ketamine-induced loss of righting reflex [3, 8]: did not affect; onset of ketamine-induced loss of righting reflex [3, 8]: did not affect; count of immobility in FST ([4]; betaine 20 and 30 mg/kg): significantly decreased; duration of struggling in FST ([6]; day 1 test session, vs control): significantly increased; duration of struggling in FST ([6]; over both sessions): significantly increased; duration of swimming in FST ([6]; betaine 10, 20 and 30 mg/kg pretreatment prior to ketamine 10 mg/kg, day 1 test session, vs control): significantly increased; duration of swimming in FST ([6]; betaine 10, 20 and 30 mg/kg pretreatment prior to ketamine 10 mg/kg, over both sessions): significantly increased; duration of swimming in FST ([6]; betaine 20 and 30 mg/kg, over both sessions): significantly increased; reduction in social interaction duration induced by ketamine ([5]; betaine 30 and 100 mg/kg i.p. prior to ketamine 30 mg/kg): significantly attenuated
